One data set deals with hepatocyte. The data set can be described thus: Hepatocyte viability assay (CEREP). It counts as cell-based. The method, then: See, Tables 4b and Scheme 18. The hepatocyte cell viability assays were performed by CEREP, Seattle, Wash., according to Mosmann, T., 1983, J. Immunol. Met. 65:55-62.
The target of the next data set is T1, hERG (Homo sapiens, UniProt Q12809).
T1 construct: host or cells: CHO (Chinese hamster ovary)
In words: hERG patch clamp assay (automated, CHO-hERG cells). The data set is classed as cell-based. The method, then: The hERG inhibition assay uses a high throughput single cell planar patch clamp approach. Chinese hamster ovary cells transfected with the hERG gene (CHO-hERG) are dispensed into the PatchPlate. Amphotericin is used as a perforating agent to gain electrical access to the cells. The hERG tail current is measured prior to the addition of the test compound by perforated patch clamping. Following addition of the test compound at a defined concentration or range of concentrations a second recording of the hERG current is performed. The degree of inhibition (%) is obtained by measuring the tail current amplitude, which is induced by a one second test pulse to −40 mV after a two second pulse to +20 mV, before and after drug incubation (the difference current is normalized to control and multiplied by 100 to obtain the percent of inhibition).
Concentration (log) response curves were fitted to a logistic equation (three parameters assuming complete block of the current at very high test compound concentrations) to generate estimates of the 50% inhibitory concentration (IC50). The concentration-response relationship of each compound is constructed from the percentage reductions of current The data is usually categorized into the following classification bands:
The hERG assay was conducted by Cyprotec Inc. in its Watertown, Mass. laboratories. The concentration range tested was 0.0096-30 μM. No concentration-dependent inhibition was observed, IC50>30 μM.
The hERG inhibition assay uses a high throughput single cell planar patch clamp approach. Chinese hamster ovary cells transfected with the hERG gene (CHO-hERG) are dispensed into the PatchPlate. Amphotericin is used as a perforating agent to gain electrical access to the cells. The hERG tail current is measured prior to the addition of the test compound by perforated patch clamping. Following addition of the test compound, n=4 cells per concentration, final DMSO concentration=0.25%), a second recording of the hERG current is performed.
Post-compound hERG currents are expressed as a percentage of pre-compound hERG currents (% control current) and plotted against concentration for each compound. Where concentration dependent inhibition is observed the Hill equation is used to fit a sigmoidal line to the data and an IC50 (concentration at which 50% inhibition is observed) is determined. The assays were performed according to Haverkamp, W. et al., 2000, Eur Heart J., 21:1216-1231, Kiss, L. et al., 2003, Assay Drug Dev. Technol., 1:127-135 and Schroeder, K. et al., 2003, J. Biomol Screen, 8:50-64.
(In general: hERG is a cardiac potassium channel; its block is linked to QT prolongation.)

Usually IC50 stands for the concentration that gives 50% inhibition.

T1 sequence (Q12809 whole entry): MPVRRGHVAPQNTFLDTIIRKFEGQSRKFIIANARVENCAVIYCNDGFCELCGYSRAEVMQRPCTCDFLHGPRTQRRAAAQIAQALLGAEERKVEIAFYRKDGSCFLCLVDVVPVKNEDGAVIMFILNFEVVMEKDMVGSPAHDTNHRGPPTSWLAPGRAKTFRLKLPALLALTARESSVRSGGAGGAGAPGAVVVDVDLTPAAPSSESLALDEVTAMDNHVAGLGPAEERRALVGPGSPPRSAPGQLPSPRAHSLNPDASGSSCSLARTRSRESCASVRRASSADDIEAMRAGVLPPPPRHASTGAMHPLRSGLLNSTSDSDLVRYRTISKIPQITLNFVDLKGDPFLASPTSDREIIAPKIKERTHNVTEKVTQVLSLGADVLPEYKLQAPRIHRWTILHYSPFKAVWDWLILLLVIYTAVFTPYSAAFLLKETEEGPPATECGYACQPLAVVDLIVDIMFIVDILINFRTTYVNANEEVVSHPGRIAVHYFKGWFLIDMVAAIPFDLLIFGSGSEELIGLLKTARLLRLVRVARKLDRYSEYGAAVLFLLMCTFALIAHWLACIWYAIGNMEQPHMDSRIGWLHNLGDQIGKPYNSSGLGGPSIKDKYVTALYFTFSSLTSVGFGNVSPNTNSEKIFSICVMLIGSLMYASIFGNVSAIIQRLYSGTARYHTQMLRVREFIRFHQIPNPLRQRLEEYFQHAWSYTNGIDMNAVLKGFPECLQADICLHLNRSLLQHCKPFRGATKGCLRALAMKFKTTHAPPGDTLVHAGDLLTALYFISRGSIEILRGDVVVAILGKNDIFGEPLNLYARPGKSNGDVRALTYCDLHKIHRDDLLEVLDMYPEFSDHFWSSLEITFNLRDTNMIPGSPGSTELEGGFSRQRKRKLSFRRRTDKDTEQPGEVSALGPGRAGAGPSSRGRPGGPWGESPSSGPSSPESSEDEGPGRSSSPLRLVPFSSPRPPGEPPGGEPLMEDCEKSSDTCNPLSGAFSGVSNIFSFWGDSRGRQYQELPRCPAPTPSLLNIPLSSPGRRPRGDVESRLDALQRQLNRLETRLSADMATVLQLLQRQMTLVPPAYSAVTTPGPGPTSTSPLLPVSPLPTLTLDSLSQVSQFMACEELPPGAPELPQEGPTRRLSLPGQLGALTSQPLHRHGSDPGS

For `CN1CCN(c2nc(NCCN3CCOCC3)c3ncc(-c4ccccc4)nc3n2)CC1` [JB6059], in the data set with hepatocyte, the “% Hepatocyte viability 24 h at 100 μM” value was 69%. Moreover, the IC50 against hERG (Table 4b) turned out to be 5 µM; at hERG (hERG patch clamp assay, FIG. 1), 6.2 µM.

As to `CN1CCN(c2nc3nc(-c4ccccc4)nc(NCCN4CCOCC4)c3nc2OCCN2CCOCC2)CC1` [JB6116], the “% Hepatocyte viability 24 h at 100 μM” value in the data set with hepatocyte came to 69%. In addition, the IC50 was 13.1 µM at hERG (hERG patch clamp assay, FIG. 1) and less than 30 µM against hERG (human, CHO cells transfected with hERG (CHO-hERG), Table 4b).

As to `CN1CCN(c2nc(NCCN3CCOCC3)c3nc(Cl)c(NCCN4CCOCC4)nc3n2)CC1` [JB6121, 6-chloro-2-(4-methylpiperazin-1-yl)-N^4,N^7-bis(2-morpholinoethyl)pteridine-4,7-diamine], in the data set with hepatocyte, the “% Hepatocyte viability 24 h at 100 μM” value is reported as 92%. The IC50 on hERG (Cyprotec, concentration range tested 0.0096-30 μM) is more than 30 µM; against hERG (Table 4b), more than 30 µM. Moreover, the hERG inhibition entry at hERG (up to 30 μM) is on record as “no measurable hERG inhibition”.

As for `CCOc1nc2c(NCCN3CCCC3)nc(-c3ccccc3)nc2nc1N1CCN(C)CC1` [JB6131], the “% Hepatocyte viability 24 h at 100 μM” value in the data set on hepatocyte was 11%. For the same molecule, the 50% inhibitory concentration (IC50) against hERG (Table 4b) is less than 10 µM; on hERG (hERG patch clamp assay, FIG. 1), 8.1 µM.

Turning to `CCCCNc1nc(NCCN2CCOCC2)c2nc(Cl)c(NCCN3CCOCC3)nc2n1` [JB6140], the “% Hepatocyte viability 24 h at 50 μM” value with hepatocyte amounted to 59%. In addition, the IC50 against hERG (Table 4b) is less than 1 µM.

Turning to `C[C@@H]1CN(CCNc2nc3nc(N4CCN(C)CC4)nc(NCCN4C[C@@H](C)O[C@@H](C)C4)c3nc2Cl)C[C@H](C)O1` [JB6143], in the data set with hepatocyte, the “% Hepatocyte viability 24 h at 50 μM” value is listed as 74%. The 50% inhibitory concentration (IC50) on hERG (Table 4b) is more than 30 µM.

On to `COCCN1CCN(c2nc(NCCN3CCOCC3)c3nc(Cl)c(NCCN4CCOCC4)nc3n2)CC1` [JB6160], for which the “% Hepatocyte viability 24 h at 50 μM” value in the data set with hepatocyte stood at 47%. At hERG (Table 4b), the IC50 is more than 30 µM.

On to `Clc1nc2c(NCCN3CCOCC3)nc(NCc3ccccc3)nc2nc1NCCN1CCOCC1` [JB6172], for which the “% Hepatocyte viability 24 h at 50 μM” value in the data set on hepatocyte came to 51%. The same molecule displayed an IC50 against hERG (Table 4b) of 1 µM.

Consider `CCOc1nc2c(NCCN3CCOCC3)nc(NCc3ccccc3)nc2nc1NCCN1CCOCC1` [JB6180], for which the “% Hepatocyte viability 24 h at 50 μM” value with hepatocyte amounted to 13%. In addition, the IC50 at hERG (Table 4b) worked out at 0.3 µM.

For `CCCCNc1nc(NCCN2CCOCC2)c2nc(SCC)c(NCCN3CCOCC3)nc2n1` [JB6185], in the data set on hepatocyte, the “% Hepatocyte viability 24 h at 50 μM” value was 0%. The molecule also returned an IC50 against hERG (Table 4b) of less than 0.3 µM.

Values taken from US20170275287A1, “NOVEL N2, N4, N7, 6-TETRASUBSTITUTED PTERIDINE-2,4,7-TRIAMINE AND 2, 4, 6, 7-TETRASUBSTITUTED PTERIDINE COMPOUNDS AND METHODS OF SYNTHESIS AND USE THEREOF” (Janus Biotherapeutics, Inc., priority 2014, published 2017).
